According to patent US11999697B2, “Methods and compositions for inhibition of dihydroorotate dehydrogenase” (OHIO STATE INNOVATION FOUNDATION, priority 2018, dated 2024):
Where two headings read alike, the source gives them in different places.

Tests used:
OCI-AML3 = assay: MTS cell proliferation assay, OCI-AML3; format: cell-based; settings: Homo sapiens
Method: (§1) Triplicate wells were set up for each condition.
(§2) The assays were carried out in a blinded fashion.

MOLM-13 = assay: MTS cell proliferation assay, MOLM-13; format: cell-based; settings: Homo sapiens, 96 hours
Method: as §1, §2

THP1 = assay: MTS cell proliferation assay, THP1; format: cell-based; settings: Homo sapiens, THP-1, 96 hours
Method: as §1, §2

HL-60 = assay: MTS cell proliferation assay, HL-60; format: cell-based; settings: Homo sapiens, 96 hours
Method: as §1, §2

MV4-11 = assay: MTS cell proliferation assay, MV4-11; format: cell-based; settings: for IC50: Homo sapiens, MV4-11, MTS
DHODH = molecular target: T1, DHODH (Homo sapiens, UniProt Q02127); assay: DHODH enzymatic assay (DCIP reduction); format: biochemical; settings: for DHODH inhibition, % inhibition: compound concentration not given; for IC50: range in parentheses, read-out: DHODH inhibition, IC50
T1 construct: made in house
T1 sequence (Q02127 whole entry): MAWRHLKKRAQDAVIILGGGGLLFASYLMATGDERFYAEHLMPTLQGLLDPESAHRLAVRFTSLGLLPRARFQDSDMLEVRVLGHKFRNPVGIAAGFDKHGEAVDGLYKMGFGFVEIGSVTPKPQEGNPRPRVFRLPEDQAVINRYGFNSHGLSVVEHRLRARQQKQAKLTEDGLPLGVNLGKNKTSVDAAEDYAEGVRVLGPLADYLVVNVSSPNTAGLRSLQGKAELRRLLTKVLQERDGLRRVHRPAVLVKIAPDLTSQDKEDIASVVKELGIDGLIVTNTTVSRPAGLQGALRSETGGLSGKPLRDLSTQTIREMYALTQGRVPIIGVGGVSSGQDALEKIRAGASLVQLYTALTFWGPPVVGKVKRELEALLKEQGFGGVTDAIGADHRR
Method: DHODH Enzymatic Assay: DHODH activity was determined at 25° C. following the reduction of 2,6-dichloroindophenol sodium salt (DCIP) at 600 nm (ε=18 800 M^−1 cm^−1) on a spectrophotometer. The reaction medium used contained 50 mM Tris-HCl, pH 8.0, 0.1% Triton X-100, 0.1 mM LDHO, 0.025 mM CoQ1, and 0.06 mM DCIP. The reaction was started by addition of the enzyme. The inhibitory potency of the compounds was evaluated by measuring the initial velocity of the reaction either in the absence or in the presence of the compounds at the indicated concentrations. The DHODH enzyme used was the recombinant human enzyme prepared as previously described (Helene Munier-Lehmann, et al., J. Med. Chem. 2015, 58:860-877).

[1] = OCI-AML-3, 96 hours, read-out: IC50 (μM) at 96 hours, OCI-AML3
[2] = 96 hours, read-out: IC50 (μM) at 96 hours, MV4-11
[3] = OCI-AML-3, 96 hour, Table 6, read-out: 96 hour IC50 (nM) in OCI-AML-3 cell line
[4] = 96 hour, Table 7, read-out: 96 hour IC50 (nM) in MV-411 cell line

For `CC1=C(/C=C/C(C)=C/C=C/C(C)=C/C(=O)O)C(C)(C)CCC1` [ATRA, all-trans-retinoic acid, reference compound], the IC50 (OCI-AML3; [1]) was 0.09 µM and the IC50 (MOLM-13) was 3.06 µM.

`Cc1c(-c2ccc(-c3ccccc3F)cc2)nc2ccc(F)cc2c1C(=O)O` [BQR•Na, reference compound] showed an IC50 (OCI-AML3; [1]) of 0.4 µM, an IC50 (MOLM-13) of 0.48 µM and an IC50 (THP1) of 1 µM. It also gave an IC50 (HL-60) of 0.23 µM and an IC50 (MV4-11; [2]) of 0.49 µM.

For `Cc1c(-c2ccc(-c3ccccc3F)cc2)nc2ccc(F)cc2c1C(=O)O` [Brequinar, 6-fluoro-2-(2′-fluoro-1,1′-biphenyl-4-yl)-3-methyl-4-quinolinecarboxylic acid, reference compound], the IC50 (OCI-AML3; [3]) was 0.314 µM and the “rescue of cytotoxic effects by uridine” value (MV4-11; 0.25 or 0.5 μM compound, uridine 0 to 200 μM, 96 hours) was “rescued by growth in the presence of uridine”.

Compound `COc1ccc(-c2ccc(-c3cc(C(=O)O)c4cc(Cl)ccc4n3)cc2)cc1` [Cpd5, 6-chloro-2-(4′-methoxy-[1,1′-biphenyl]-4-yl)quinoline-4-carboxylic acid] has an IC50 (OCI-AML3; [1]) of 3.37 µM, an IC50 (MOLM-13) of 3.02 µM and an IC50 (THP1) of 7.84 µM. The “DHODH inhibition, % inhibition” value (DHODH) was 95%, the IC50 (DHODH) was 99 nM and the IC50 (HL-60) was 20.9 µM. The IC50 (MV4-11; [2]) was 6.96 µM.

`O=C(O)c1cc(-c2ccc(-c3ccc(F)cc3)cc2)nc2ccc(Cl)cc12` [Cpd6, 6-chloro-2-(4′-fluoro-[1,1′-biphenyl]-4-yl)quinoline-4-carboxylic acid] showed an IC50 (OCI-AML3; [1]) of 6.25 µM, an IC50 (MOLM-13) of 6.91 µM and an IC50 (THP1) of 10.4 µM. The “DHODH inhibition, % inhibition” value (DHODH) was 99%, the IC50 (DHODH) was 76 nM and the IC50 (HL-60) was 3 µM. The IC50 (MV4-11; [2]) was 6.48 µM.

`COc1ccc(-c2ccc(-c3cc(C(=O)O)c4cccc(F)c4n3)cc2)cc1` [Cpd8, 8-fluoro-2-(4′-methoxy-[1,1′-biphenyl]-4-yl)quinoline-4-carboxylic acid] showed an IC50 (OCI-AML3; [1]) of 4.99 µM, an IC50 (MOLM-13) of 6.76 µM and an IC50 (THP1) of 11.6 µM. The IC50 (HL-60) was 3.57 µM and the IC50 (MV4-11; [2]) was 7.54 µM.

`Cc1c(-c2ccc(-c3ccc(F)cc3F)cc2)nc2c(F)cccc2c1C(=O)O` [Cpd14, 2-(2′,4′-difluoro-[1,1′-biphenyl]-4-yl)-8-fluoro-3-methylquinoline-4-carboxylic acid] was tested, and the IC50 (OCI-AML3; [1]) was 11.2 µM, the IC50 (MOLM-13) was 8.63 µM and the IC50 (THP1) was 21.4 µM. The IC50 (HL-60) was 9.48 µM and the IC50 (MV4-11; [2]) was 14 µM.

`CCOc1ccc(-c2ccc(-c3cc(C(=O)O)c4cccc(F)c4n3)cc2)cc1` [Cpd16, 2-(4′-ethoxy-[1,1′-biphenyl]-4-yl)-8-fluoroquinoline-4-carboxylic acid] showed an IC50 (OCI-AML3; [1]) of 2.9 µM, an IC50 (MOLM-13) of 3.42 µM and an IC50 (THP1) of 6.7 µM. The IC50 (HL-60) was 1.69 µM and the IC50 (MV4-11; [2]) was 6.23 µM.

For `O=C(O)c1cc(-c2ccc(-c3ccc(C(F)(F)F)cc3)cc2)nc2ccc(-c3ccc(F)cc3)cc12` [Cpd17, 6-(4-fluorophenyl)-2-(4′-(trifluoromethyl)-[1,1′-biphenyl]-4-yl)quinoline-4-carboxylic acid], the “DHODH inhibition, % inhibition” value (DHODH) was 8%.

`Cc1c(-c2ccc(-c3ccc(F)cc3)cc2)nc2ccc(F)cc2c1C(=O)O` [Cpd18, 6-fluoro-2-(4′-fluoro-[1,1′-biphenyl]-4-yl)-3-methylquinoline-4-carboxylic acid] was tested, and the IC50 (OCI-AML3; [1]) was 4.01 µM, the IC50 (MOLM-13) was 6.76 µM and the IC50 (THP1) was 9.34 µM. For the same compound, the IC50 (HL-60) was 2.4 µM and the IC50 (MV4-11; [2]) was 6.86 µM.

Work on `COc1ccc(-c2ccc(-c3cc(C(=O)O)c4cc(F)ccc4n3)cc2)cc1` [Cpd20, 6-fluoro-2-(4′-methoxy-[1,1′-biphenyl]-4-yl)quinoline-4-carboxylic acid] yielded an IC50 (MV4-11; [4]) of 0.69 µM.

With `CCCOc1ccc(-c2ccc(-c3cc(C(=O)O)c4cc(F)ccc4n3)cc2)cc1` [Cpd21, 6-fluoro-2-(4′-propoxy-[1,1′-biphenyl]-4-yl)quinoline-4-carboxylic acid] the IC50 (MV4-11; [4]) was 0.06 µM.

Compound `CCCCOc1ccc(-c2ccc(-c3cc(C(=O)O)c4cc(F)ccc4n3)cc2)cc1` [Cpd22, 2-(4′-butoxy-[1,1′-biphenyl]-4-yl)-6-fluoroquinoline-4-carboxylic acid] has an IC50 (OCI-AML3; [3]) of 0.155 µM and an IC50 (MV4-11; [4]) of 0.036 µM.

With `CCCCCCCOc1ccc(-c2ccc(-c3cc(C(=O)O)c4cc(F)ccc4n3)cc2)cc1` [Cpd23, 6-fluoro-2-(4′-(heptyloxy)-[1,1′-biphenyl]-4-yl)quinoline-4-carboxylic acid] the IC50 (OCI-AML3; [3]) was 0.0906 µM and the IC50 (MV4-11; [4]) was 0.018 µM.

`O=C(O)c1cc(-c2ccc(-c3ccccc3F)cc2)nc2ccc(F)cc12` [Cpd24, 6-fluoro-2-(2'-fluoro-[1,1′-biphenyl]-4-yl)quinoline-4-carboxylic acid] showed an IC50 (OCI-AML3; [3]) of 0.0495 µM.

`CC(C)Oc1ccc(-c2ccc(-c3cc(C(=O)O)c4cc(F)ccc4n3)cc2)cc1` [Cpd25, 6-fluoro-2-(4′-isopropoxy-[1,1′-biphenyl]-4-yl)quinoline-4-carboxylic acid] gave an IC50 (OCI-AML3; [3]) of 0.0676 µM.

In the case of `CC(C)COc1ccc(-c2ccc(-c3cc(C(=O)O)c4cc(F)ccc4n3)cc2)cc1` [Cpd26, 6-fluoro-2-(4′-isobutoxy-[1,1′-biphenyl]-4-yl)quinoline-4-carboxylic acid], the IC50 (OCI-AML3; [3]) is reported as 0.0893 µM.

`CCOc1ccccc1-c1ccc(-c2cc(C(=O)O)c3cc(F)ccc3n2)cc1` [Cpd27, 2-(2′-ethoxy-[1,1′-biphenyl]-4-yl)-6-fluoroquinoline-4-carboxylic acid] showed an IC50 (OCI-AML3; [3]) of 0.637 µM.

Compound `CCOc1cccc(-c2ccc(-c3cc(C(=O)O)c4cc(F)ccc4n3)cc2)c1` [Cpd28, 2-(3′-ethoxy-[1,1′-biphenyl]-4-yl)-6-fluoroquinoline-4-carboxylic acid] has an IC50 (OCI-AML3; [3]) of 0.0209 µM.

`CCCCCOc1ccc(-c2ccc(-c3cc(C(=O)O)c4cc(F)ccc4n3)cc2)cc1` [Cpd29, 6-fluoro-2-(4′-(pentyloxy)-[1,1′-biphenyl]-4-yl)quinoline-4-carboxylic acid] showed an IC50 (OCI-AML3; [3]) of 0.0729 µM.

`CCCCCCOc1ccc(-c2ccc(-c3cc(C(=O)O)c4cc(F)ccc4n3)cc2)cc1` [Cpd30, 6-fluoro-2-(4′-(hexyloxy)-[1,1′-biphenyl]-4-yl)quinoline-4-carboxylic acid] gave an IC50 (OCI-AML3; [3]) of 0.0761 µM.

In the case of `CCCCCCCCOc1ccc(-c2ccc(-c3cc(C(=O)O)c4cc(F)ccc4n3)cc2)cc1` [Cpd31, 6-fluoro-2-(4′-(octyloxy)-[1,1′-biphenyl]-4-yl)quinoline-4-carboxylic acid], the IC50 (OCI-AML3; [3]) is reported as 0.175 µM.

`CC(C)(C)Oc1ccc(-c2ccc(-c3cc(C(=O)O)c4cc(F)ccc4n3)cc2)cc1` [Cpd32, 2-(4′-(tert-butoxy)-[1,1′-biphenyl]-4-yl)-6-fluoroquinoline-4-carboxylic acid] was tested, and the IC50 (OCI-AML3; [3]) was 0.0503 µM.

For `CC(C)CCOc1ccc(-c2ccc(-c3cc(C(=O)O)c4cc(F)ccc4n3)cc2)cc1` [Cpd33, 6-fluoro-2-(4′-(isopentyloxy)-[1,1′-biphenyl]-4-yl)quinoline-4-carboxylic acid], the IC50 (OCI-AML3; [3]) was 0.0746 µM.

For `CCOc1ccc(-c2ccc(-c3cc(C(=O)O)c4cc(F)ccc4n3)cc2)c(F)c1` [Cpd35, 2-(4′-ethoxy-2′-fluoro-[1,1′-biphenyl]-4-yl)-6-fluoroquinoline-4-carboxylic acid], the IC50 (OCI-AML3; [3]) was 0.0877 µM.

`CCOc1ccc(-c2ccc(-c3cc(C(=O)O)c4cc(C(F)(F)F)ccc4n3)cc2)cc1` [Cpd36, 2-(4′-ethoxy-[1,1′-biphenyl]-4-yl)-6-(trifluoromethyl)quinoline-4-carboxylic acid] gave an IC50 (OCI-AML3; [3]) of 0.33 µM.

For `COCc1cccc(-c2ccc(-c3cc(C(=O)O)c4cc(F)ccc4n3)cc2)c1` [Cpd37, 6-fluoro-2-(3′-(methoxymethyl)-[1,1′-biphenyl]-4-yl)quinoline-4-carboxylic acid], the IC50 (OCI-AML3; [3]) was 0.864 µM.

In the case of `COCc1ccc(-c2ccc(-c3cc(C(=O)O)c4cc(F)ccc4n3)cc2)cc1` [Cpd38, 6-fluoro-2-(4′-(methoxymethyl)-[1,1′-biphenyl]-4-yl)quinoline-4-carboxylic acid], the IC50 (OCI-AML3; [3]) is reported as 1.06 µM.

Work on `COCc1ccccc1-c1ccc(-c2cc(C(=O)O)c3cc(F)ccc3n2)cc1` [Cpd39, 6-fluoro-2-(2'-(methoxymethyl)-[1,1′-biphenyl]-4-yl) quinoline-4-carboxylic acid] yielded an IC50 (OCI-AML3; [3]) of 0.0964 µM.

Compound `O=C(O)c1cc(-c2ccc(-c3ccc(Oc4ccccc4)cc3)cc2)nc2ccc(F)cc12` [Cpd40, 6-fluoro-2-(4′-phenoxy-[1,1′-biphenyl]-4-yl)quinoline-4-carboxylic acid] has an IC50 (MV4-11; [4]) of 0.067 µM.
